From PubChem BioAssay AID1918953 (Molecular Pharmacology Branch, DTP, NCI, 2023)

System: MDA-MB-231 complex spheroid viability
Assay: Anticancer human tumor MDA-MB-231/ATCC cell line growth inhibition;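 also: drug exposure lasted 7 days starting on day 3 of spheroid growth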
Settings: for IC50: curve of first compound; for viability, T/C: stronger effect = lower value
How it was run: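 Drug combinations with the LSD1 inhibitor iadademstat tested on tumor cells co-cultured as spheroids with endothelial cells and mesenchymal stem cells. Concentrations descended in half-log increments from clinical Cmax or 10 microM.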

[1] = second compound 0.1 µM, first compound 0.000316 µM
[2] = second compound 0.1 µM, first compound 0.001 µM
[3] = second compound 0.1 µM, first compound 0.00316 µM
[4] = second compound 0.1 µM, first compound 0.01 µM
[5] = second compound 0.1 µM, first compound 0.0316 µM
[6] = second compound 0.1 µM, first compound 0.1 µM
[7] = second compound 0.316 µM, first compound 0.000316 µM
[8] = second compound 0.316 µM, first compound 0.001 µM
[9] = second compound 0.316 µM, first compound 0.00316 µM
[10] = second compound 0.316 µM, first compound 0.01 µM
[11] = second compound 0.316 µM, first compound 0.0316 µM
[12] = second compound 0.316 µM, first compound 0.1 µM
[13] = second compound 1 µM, first compound 0.000316 µM
[14] = second compound 1 µM, first compound 0.001 µM
[15] = second compound 1 µM, first compound 0.00316 µM
[16] = second compound 1 µM, first compound 0.01 µM
[17] = second compound 1 µM, first compound 0.0316 µM
[18] = second compound 1 µM, first compound 0.1 µM
[19] = second compound 3.16 µM, first compound 0.000316 µM
[20] = second compound 3.16 µM, first compound 0.001 µM
[21] = second compound 3.16 µM, first compound 0.00316 µM
[22] = second compound 3.16 µM, first compound 0.01 µM
[23] = second compound 3.16 µM, first compound 0.0316 µM
[24] = second compound 3.16 µM, first compound 0.1 µM
[25] = second compound 10 µM, first compound 0.000316 µM
[26] = second compound 10 µM, first compound 0.001 µM
[27] = second compound 10 µM, first compound 0.00316 µM
[28] = second compound 10 µM, first compound 0.01 µM
[29] = second compound 10 µM, first compound 0.0316 µM
[30] = second compound 10 µM, first compound 0.1 µM

SMILES | IC50 (second compound 0.1 µM) | IC50 (second compound 0.316 µM) | IC50 (second compound 1 µM) | IC50 (second compound 3.16 µM) | IC50 (second compound 10 µM) | viability, T/C [1] | viability, T/C [2] | viability, T/C [3] | viability, T/C [4] | viability, T/C [5] | viability, T/C [6] | viability, T/C [7] | viability, T/C [11] | viability, T/C [12] | viability, T/C [17] | viability, T/C [18] | viability, T/C [23] | viability, T/C [24] | viability, T/C [29] | viability, T/C [30] | further results
CC(C)CC(NC(=O)C(Cc1ccccc1)NC(=O)c1cnccn1)B(O)O (stereo not given) + NC1CC1c1ccc(-c2cccc(O)c2)cc1 | < 0.316 nM | < 0.316 nM | < 0.316 nM | < 0.316 nM | < 0.316 nM | 29.9% | 1.88% | 0.68% | 0.5% | 0.85% | 1.08% | 31.8% | 0.07% | 0.14% | 0.09% | 0.15% | 0.07% | 1.91% | 0.12% | 1.1% | viability, T/C [8]: 0.28%; viability, T/C [9]: 0.07%; viability, T/C [10]: 0.06%; viability, T/C [13]: 28.9%; viability, T/C [14]: 0.45%; viability, T/C [15]: 0.11%; viability, T/C [16]: 0.08%; viability, T/C [19]: 25.6%; viability, T/C [20]: 0.41%; viability, T/C [21]: 0.12%; viability, T/C [22]: 0.15%; viability, T/C [25]: 18.3%; viability, T/C [26]: 0.24%; viability, T/C [27]: 0.13%; viability, T/C [28]: 0.11%
CC[C@@]1(O)C(=O)OCc2c1cc1n(c2=O)Cc2cc3c(CN(C)C)c(O)ccc3nc2-1 + NC1CCC(NC2CC2c2ccccc2)CC1 | 2.37 nM | 2.18 nM | 2.28 nM | 1.46 nM | 0.603 nM | 91.6% | 70.6% | 40.3% | 29.1% | 22.5% | 13% | 87.6% | 22.2% | 12.4% | 22.4% | 13.2% | 19.9% | 13.2% | 16% | 12.2% | viability, T/C [8]: 66.3%; viability, T/C [9]: 40%; viability, T/C [10]: 28.9%; viability, T/C [13]: 87.3%; viability, T/C [14]: 69.6%; viability, T/C [15]: 38.9%; viability, T/C [16]: 29.7%; viability, T/C [19]: 74.4%; viability, T/C [20]: 56.8%; viability, T/C [21]: 36.5%; viability, T/C [22]: 28.9%; viability, T/C [25]: 57.8%; viability, T/C [26]: 44.2%; viability, T/C [27]: 31.3%; viability, T/C [28]: 23.2%
CC1COCCN1c1cc(C2(S(C)(=N)=O)CC2)nc(-c2ccnc3[nH]ccc23)n1 (stereo not given) + NC1CC1c1ccc(-c2cccc(O)c2)cc1 | 952 nM | 749 nM | 537 nM | 832 nM | 490 nM | – | – | – | – | 90.7% | 90.3% | – | 71.7% | 74.8% | 53.6% | 68.1% | 72.4% | 80.1% | 57.1% | 59.7% | viability, T/C (second compound 0.1 µM, first compound 0.316 µM): 87%; viability, T/C (second compound 0.1 µM, first compound 1 µM): 47.6%; viability, T/C (second compound 0.1 µM, first compound 3.16 µM): 31.5%; viability, T/C (second compound 0.1 µM, first compound 10 µM): 22.4%; viability, T/C (second compound 0.316 µM, first compound 0.316 µM): 74.5%; viability, T/C (second compound 0.316 µM, first compound 1 µM): 42%; viability, T/C (second compound 0.316 µM, first compound 3.16 µM): 23.3%; viability, T/C (second compound 0.316 µM, first compound 10 µM): 20.3%; viability, T/C (second compound 1 µM, first compound 0.316 µM): 57.4%; viability, T/C (second compound 1 µM, first compound 1 µM): 40.4%; viability, T/C (second compound 1 µM, first compound 3.16 µM): 23.9%; viability, T/C (second compound 1 µM, first compound 10 µM): 20.9%; viability, T/C (second compound 3.16 µM, first compound 0.316 µM): 72.7%; viability, T/C (second compound 3.16 µM, first compound 1 µM): 45.6%; viability, T/C (second compound 3.16 µM, first compound 3.16 µM): 23%; viability, T/C (second compound 3.16 µM, first compound 10 µM): 21.1%; viability, T/C (second compound 10 µM, first compound 0.316 µM): 56.4%; viability, T/C (second compound 10 µM, first compound 1 µM): 40.1%; viability, T/C (second compound 10 µM, first compound 3.16 µM): 23.6%; viability, T/C (second compound 10 µM, first compound 10 µM): 18.7%
